Values of other authors in patent publication US20210000933A1, “TUMOR VACCINE” (CELL-MEDICINE, INC., priority 2019, published 2021).
Where two headings read alike, the source gives them in different places.

Assays:
[1] = test system: brain tumor
[2] = test system: newly diagnosed glioblastoma; settings: bevacizumab used together with the standard therapy
[3] = 22 brain tumor cases, PDT then standard therapy
[4] = newly diagnosed glioblastoma cases (13 cases)

Compound	Side reactions ([1]; 22 brain tumor cases)	6-month progression-free survival rate [1, 3] [%]	12-month postoperative overall survival rate [1, 3] [%]	mOS ([1]; glioblastoma cases) [months]	mPFS ([1]; glioblastoma cases) [months]	6-month progression-free survival rate [1, 4] [%]	12-month postoperative overall survival rate [1, 4] [%]	mOS [2] [months]	mPFS [2] [months]
C=Cc1c(C)c2cc3nc(c(CC(=O)N[C@@H](CC(=O)O)C(=O)O)c4[nH]c(cc5nc(cc1[nH]2)C(C)=C5CC)c(C)c4C(=O)O)[C@@H](CCC(=O)O)[C@@H]3C [talaporphin sodium, talaporfin sodium]	observed for only four cases, and all of them were mild	91	95.5	24.8	12.0	100	100	–	–
bevacizumab: antibody drug having a tumor neovascularization inhibitory effect	–	–	–	–	–	–	–	15.7 to 16.8	10.6 to 10.7
